ChEMBL document CHEMBL1126381, “2-carboxy indolines and indoles as potential glycine/NMDA antagonists: effect of five-membered ring conformation on affinity” (Bioorg Med Chem Lett, 1992)

Columns and labels:
[1] = molecular target: Glutamate receptor ionotropic, NMDA 1 (Rattus norvegicus, UniProt P35439); assay: Inhibition of [3H]L-689,560 binding to Glycine site of NMDA receptor of rat cortical membranes; format: cell membranes, Membrane
[2] = system: Mus musculus; assay: In vivo activity in DBA/2 Mouse audiogenic seizure model was determined by testing number of animals protected after a dose of 50 mg/Kg i.p.; Number of animals tested 8 mice; format: functional
[3] = system: Mus musculus; assay: In vivo activity in DBA/2 Mouse audiogenic seizure model was determined by testing number of animals protected after a dose of 100 mg/Kg i.p.; Number of animals tested 8 mice; format: functional

Compound | IC50 [1] | Animals protected [2] | Animals protected [3]
O=C(O)c1[nH]c2cc(Cl)ccc2c1CO | 9 µM |  | 
NC(=O)c1c(C(=O)O)[nH]c2cc(Cl)ccc12 | 0.81 µM |  | 
O=C(O)C[C@@H]1c2ccc(Cl)cc2N[C@H]1C(=O)O | > 100 µM |  | 
O=C(O)CCc1c(C(=O)O)[nH]c2cc(Cl)cc(Cl)c12 | 0.07 µM | 0 | 6
COC(=O)C1(C(=O)OC)c2ccc(Cl)cc2N[C@H]1C(=O)O | > 100 µM |  | 
Nc1ccc(CNC(=O)CCc2c(C(=O)O)[nH]c3cc(Cl)cc(Cl)c23)cc1 | 0.027 µM |  | 1
NC(=O)[C@@H]1c2ccc(Cl)cc2N[C@H]1C(=O)O | > 100 µM |  | 
O=C(O)[C@@H]1c2ccc(Cl)cc2N[C@H]1C(=O)O | > 100 µM |  | 
O=C(OC[C@@H]1c2ccc(Cl)cc2N[C@H]1C(=O)O)c1ccccc1 | > 100 µM |  | 
O=C(CCc1c(C(=O)O)[nH]c2cc(Cl)cc(Cl)c12)Nc1ccccc1 | 0.036 µM |  | 
O=C(O)[C@@H]1Nc2cc(Cl)ccc2[C@H]1CO | > 100 µM |  | 
COC(=O)[C@@H]1c2ccc(Cl)cc2N[C@H]1C(=O)O | > 300 µM |  | 
